Results as given in patent publication US9597297B2, “Combination of pilocarpin and methimazol for treating Charcot-Marietooth disease and related disorders” (PHARNEXT, priority 2008, dated 2017).

How the values were obtained:
[1] = Body weight of CMT rats during treatment; assay type: in vivo, rat; conditions: treated group comparatively with placebo group, data not shown
Description: The animals are weighted twice a week in order to adjust the doses to growing body weight. If the osmotic pump is chosen for the treatment administration, the doses of the drug are calculated on the basis of the estimated mean body weight of the animals expected for their age over the period of the pump duration (6 weeks). The pumps are re-implanted if necessary, with the appropriated anaesthesia protocol.
Body weights, overt signs (coat appearance, body posture, tremor) of the animals are monitored throughout the experiment. The rating scale is used for recording: 0=normal, 1=abnormal.

[2] = tested on: PMP22 mRNA; experiment: PMP22 mRNA level by RT-Q-PCR in RT4-D6P2T schwannoma cells; assay type: cell-based, rat; conditions: 8 hrs, Methimazole 0.1 nm, Pilocarpine 0.001 nm, alone or combined
Description: Rat schwannoma RT4-D6-P2T cell line (ATCC #CRL2468™) is defrosted in DMEM (ATCC #30-2002) and 10% FCS (invitrogen #10106). The cells are maintained at 37° C. in a humidified incubator, in an atmosphere of air (95%.)—CO2 (5%). At passage n°4, cells are dissociated by trypsinization (+1 ml of Trypsin-EDTA, 0.25%-0.53 mM; Invitrogen) 5 to 15 min at 37° C. The reaction is stopped by addition of DMEM containing 10% of foetal bovine serum (FBS). […] are counted in a Neubauer cytometer using the trypan blue exclusion test (Sigma). The suspension is triturated with a 10 ml pipette and the cells are then centrifuged at 350×g for 10 min at room temperature. […]
Quantitative RT-PCR is used to compare the levels of PMP22 mRNA after drug stimulation, relative with housekeeping RPS9 mRNA in RT4-D6P2T cell line.
8 hrs after drug incubation, cells are rinsed with cold sterilized PBS, total RNAs from each cell sample are extracted and purified from SC using the Qiagen RNeasy micro kit (Qiagen #74004). Nucleic acids are quantified by Nanodrop spectrophotometer using 1 μl of RNA sample. The RNA integrity is determined through a BioAnalyzer (Agilent) apparatus. […]
In another experiment drugs (listed in Table 1) are incubated with rat schwannoma cell line during 8 hrs and PMP22 mRNA expression level was quantified by RT-Q-PCR.

[3] = tested on: PMP22 protein; experiment: PMP22 protein expression analysis by flow cytometry (FACS) in primary rat Schwann cells; assay type: cell-based; conditions: 1 μM
Description: One day later, primary Schwann cells are stimulated by drugs during 24 hrs (3 wells/condition). The preparation of each compound is performed just prior to its addition to the cell culture medium. The following PCR conditions are used: Denaturation 5 min at 95° C. followed by 10 sec at 95° C., 40 sec at 60° C. and 10 sec at 72° C. and 1 min at 40° C. (Forty amplification cycles). The relative levels of PMP22 gene expression are measured following the Ct method comparing the quantity of products generated from the target gene PMP22 and the […] 8 hrs, 24 hrs and 48 hrs after drugs incubation, supernatants of primary rat Schwann cells are recovered, centrifuged and frozen. SC are detached with trypsin-EDTA. As soon as the majority of cells are in suspension, the trypsin is neutralised using DMEM with 10% FCS. Supernatants with cells are recovered and centrifuged. […] Forward Scatter (FSC) correlated with cell volume (size) and Side Scatter (SSC) depending on inner complexity of cells (granularity) are analysed. For expression of PMP22, analysis is performed within the total cells and percent of positive cells is calculated. Positive cells are cells with fluorescence intensity higher than the control with secondary antibody.

SMILES	entire body weight [1]	PMP22 mRNA level of expression [2]	decrease of PMP22 protein level of expression ([3]; 24 hrs of incubation) [%]	change of PMP22 protein level of expression ([3]; 48 hrs of incubation, p<0.001) [%]
Cn1cc[nH]c1=S [methimazole, 1-methyl-3H-imidazole-2-thione]	rather diminished	no significant activity	–	–
CC[C@@H]1C(=O)OC[C@@H]1Cc1cncn1C [pilocarpine, (3S,4R)-3-ethyl-4-[(3-methylimidazol-4-yl)methyl]oxolan-2-one]	–	no significant activity	38	−18
